Results reported in patent US20210085798A1, “IMMUNITY LINKER MOLECULES AND THEIR USE IN THE TREATMENT OF INFECTIOUS DISEASES” (CENTAURI THERAPEUTICS LIMITED, priority 2018, published 2021).

Assays:
[1] = system: E. coli K12 (NCTC 10538); format: cell-based; settings: 40 μM Polymyxin B, anti-Gal IgM M86 25 μg/mL, MFI (FITC) over vehicle control
Method: The assays were carried out in polystyrene 96-well U bottom plates (Costar). […] The samples were incubated for 1 hour at room temperature shaking at 450 rpm. […] Data from all samples were analysed using Kaluza software (Beckman Coulter).

[2] = system: P. aeruginosa (ATCC 27853); assay: Flow cytometric antibody recruitment assay using anti-Gal IgM antibody M86, P. aeruginosa; format: cell-based; settings: anti-Gal IgM M86 40 μg/mL, MFI (FITC) over vehicle control
Method: Flow Cytometric Antibody Recruitment Assay Using an Anti-Galα1-3Galβ1-4GlcNAc (Anti-Gal) Antibody
A secondary fluorescently labelled anti-IgM antibody was used to detect the anti-Gal antibody binding.
The assays were carried out in polystyrene 96-well U bottom plates (Costar). Frozen stocks of P. aeruginosa (American Type Culture Collection, ATCC 27853) in mid-exponential phase were thawed, centrifuged and resuspended in LB broth, Miller (Fisher BP1426-500) at OD595=0.2. The bacteria were grown to mid-exponential phase (OD595=0.4), washed once with Hank's Balanced Salt Solution with calcium and magnesium (HBSS+/+) and then resuspended in HBSS+/+ at a bacterial OD595=0.6. […] After three final washes with 200 μL HBSS+/+, the bacteria were resuspended in 200 μL HBSS+/+ and evaluated for anti-Gal antibody binding on a Cytoflex flow cytometer (Beckman Coulter). 50,000 counts of bacterial particles were sampled and the median fluorescent shift was recorded in the FITC-A channel. Data from all samples were analysed using Kaluza software (Beckman Coulter). […] The fold shift over background was calculated by dividing the Median Fluorescent Intensity (MFI) obtained in the presence of 20 μM of the Example compounds by the MFI value obtained in the vehicle controls, i.e., the absence of Examples. […] The shift in fluorescence intensity (FITC) occurs due to the binding event at each end of the molecule.

Polymyxin B
IgM Recruitment (Average fold change) [1]: 4 fold change | IgM Recruitment (20 μM, Average fold change) [2]: 1 fold change
